“Also recorded” adds a separate entry of the source.
Columns and labels:
Caco-2 cells = tested on: Caco-2 cells; set-up: method as in Schneider et al. (2003); settings: ref Schneider et al. (2003); cited from earlier work
CHO-K1 cells [1] = assay: Cytokinesis-block micronucleus assay (CBMN); type: cell-based; settings: for mean micronucleus (MN) frequency: 24 h
Procedure: (§1) CHO-K1 and HepG2 cells were obtained from the Cell Bank of Rio de Janeiro (BCRJ code 0069 and 0103, respectively) and cultured in complete medium containing DMEM+F10 nutrient mixture (1:1, v/v), supplemented with fetal bovine serum (10%, v/v) and penicillin/streptomycin stabilized solution (10 mL/L). Cell cultures were incubated at 37 °C with atmosphere saturated with 5% of CO2. All experiments were conducted between the 3rd and the 8th passages and three experimental repetitions were performed.
(§2) Doxorubicin (DOX) was dissolved in ultrapure sterile water in a stock solution of 900 μM. All reagents were dissolved prior to use and protected from light. For all experiments, cells were submitted to 24 h treatment with different concentrations of the tested substance and DOX was used as positive control in CHO-K1 cells. Benzo(a)pyrene [B(a)P] at 25 μM was used as positive control in HepG2 cells.
(§3) For the micronucleus test, 10^6 cells were seeded in […] culture flasks containing complete medium. Cell cultures were allowed to grow for 24 h, then treated with different concentrations of the stilbene derivatives. Simultaneously, cytochalasin B (6 μg/mL) was added to each cell culture to inhibit cytokinesis. After 24 h of incubation, cells were harvested with a hypotonic treatment (KCl 0.075 M) and fixed twice with methanol:acetic acid (3:1). Thereafter, the cell suspension was smeared on pre-cleaned microscope slides and air-dried. Staining was performed during 15 min with Giemsa at 5% in Sorensen Buffer (v/v). Microscope slides were washed in tap water and allowed to dry at room temperature overnight. The frequency of micronucleus (MN), frequency of binucleated cells with micronucleus (BCMN) and frequency of nucleoplasmic bridges (NB) were obtained by the analysis of 1000 binucleated cell/culture/treatment as previously described by [Fenech (2000)]. A total of 500 cells/culture/treatment were analyzed to determine the Nuclear Division Index (NDI) by scoring cells with 1, 2, 3 or 4 nuclei and using the formula: NDI= M1+2(M2)+3(M3)+4(M4)/N, where, M1–M4 stand for the number of cells with 1–4 nuclei and N is the total number of viable cells analyzed.

HepG2 cells [2] = assay: Cytokinesis-block micronucleus assay (CBMN); type: cell-based; settings: for nuclear bridges (NB): HepG2; for mean micronucleus (MN) frequency: 24 h
Procedure: as §1, §2, §3

tubulin = tested on: tubulin; set-up: method as in Schneider et al. (2003); settings: ref Schneider et al. (2003); cited from earlier work
[3] = Cell viability assay (XTT), 24 h treatment; type: cell-based
Procedure: as §1, §2
To determine cell viability, 10^4 cells/well were seeded on a 96-well plate. […] The plates were washed twice in phosphate buffer saline (PBS 1X) and incubated for 4 h at 37 °C with DMEM without phenol red and supplemented with the reagents of the Cell Proliferation Kit (XTT) as recommended by the manufacturer. Total absorbance was measured at 492 and 690 nm (reference) using a microplate reader (ASYS, Eugendorf, Salzburg, Austria).

HT-29 xenografts = tested on: HT-29 xenografts; set-up: method as in Paul et al. (2010); settings: HT-29 xenografts model of colon cancer; ref Paul et al. (2010); cited from earlier work
[4] = set-up: method as in Paul et al. (2010); settings: in vivo; ref Paul et al. (2010); cited from earlier work
CHO-K1 cells [5] = assay: Clonogenic survival assay; type: cell-based; settings: for survival fraction: 24 h treatment
Procedure: as §1, §2
(§4) The clonogenic assay was performed according to [Franken et al. (2006)]. Briefly, 200 cells/well were plated in 6 well plates containing 3 mL of complete medium. After 4 h of incubation at 37 °C, the cells were treated with different concentrations of the testing stilbenes for 24 h, then each well was washed with PBS 1X and complete medium was added. The cells were allowed to grow for 7–14 days at 37 °C and 5% of CO2, when colonies were visible. The colonies formed were fixed with methanol/acetic acid/water (1:1:8 v/v/v) and stained with Giemsa 5% (v/v) in Sorensen phosphate buffer (pH 6.8). The colonies were counted, and the cell survival fraction was calculated as percent colonies relative to the untreated control.

HepG2 cells [6] = assay: Clonogenic survival assay; type: cell-based; settings: for survival fraction: 24 h treatment
Procedure: as §1, §2, §4

[7] = tested on: CHO-K1 and HepG2 cell lines; assay: Clonogenic survival assay, statements not split by cell line; settings: based on clonogenic survival assay
Procedure: as §1, §2
The clonogenic assay was performed according to [Franken et al. (2006)]. Briefly, 200 cells/well were plated in 6 well plates containing 3 mL of complete medium. After 4 h of incubation at 37 °C, the cells were treated with different concentrations of the testing stilbenes for 24 h, then each well was washed with PBS 1X and complete medium was added. […] The colonies were counted, and the cell survival fraction was calculated as percent colonies relative to the untreated control.

Colo 205 xenograft = tested on: Colo 205 xenograft; set-up: method as in Pan et al., 2008; settings: Colo 205 xenograft model of colon cancer; ref Pan et al., 2008; cited from earlier work
[8] = tested on: colon and intestinal tumors; set-up: method as in Schneider et al., 2001; settings: Min mice; ref Schneider et al., 2001; cited from earlier work
[9] = tested on: colonic aberrant crypt foci (ACF); set-up: method as in Suh et al., 2007; settings: ref Suh et al., 2007; cited from earlier work
[10] = Chinese hamster, CHO-K1, 7.8 μM (lowest concentration)
[11] = human, HepG2, 7.8 μM (lowest concentration)

SMILES: COc1ccc(/C=C\c2cc(OC)cc(OC)c2)cc1 [cis-TMS, (Z)-1,3-dimethoxy-5-(4-methoxystyryl)benzene]
- cell cycle effect in Caco-2 cells (Caco-2 cells): arrest of the cell cycle progression at the G2/M transition phase
- mean micronucleus (MN) frequency (CHO-K1 cells [1]; CHO-K1, 0.125 μM): 2.8 MN/100 cells
- mean micronucleus (MN) frequency (CHO-K1 cells [1]; CHO-K1, 0.5 μM): 5.2 MN/100 cells
- nuclear bridges (NB) (HepG2 cells [2]): No significant induction
- mean micronucleus (MN) frequency (HepG2 cells [2]; HepG2, 0.125 μM): 3.5 MN/100 cells
- mean micronucleus (MN) frequency (HepG2 cells [2]; HepG2, 0.5 μM): 6.1 MN/100 cells
- tubulin polymerization (tubulin): inhibited tubulin polymerization in a dose-dependent manner
- viability at 24 h, 7.8 µM [3, 10]: 60.7%
- viability at 24 h, 7.8 µM [3, 11]: 49%
- effect on tumor (volume, weight) in vivo (HT-29 xenografts): not active in vivo
- bioavailability [4]: low bioavailability
- survival fraction (CHO-K1 cells [5]; CHO-K1, 0.078 μM): 45.8%
- survival fraction (CHO-K1 cells [5]; CHO-K1, 0.156 μM): 36.8%
- survival fraction (CHO-K1 cells [5]; CHO-K1, 0.3125 μM): 13.9%
- cells killed (clonogenic assay) (CHO-K1 cells [5]; CHO-K1, all concentrations tested (2.5 μM upwards)): 100%
- survival fraction (HepG2 cells [6]; HepG2, 0.078 μM): 41.3%
- survival fraction (HepG2 cells [6]; HepG2, 0.156 μM): 54.3%
- survival fraction (HepG2 cells [6]; HepG2, 0.3125 μM): 16.9%
- survival fraction (HepG2 cells [6]; HepG2, 0.625 μM): 6.2%
- cells killed (clonogenic assay) (HepG2 cells [6]; HepG2, at 2.5, 5 and 10 μM): 100%
- fold more cytotoxic than the amino and ester [7]: approximately 250 fold
- fold more cytotoxic than trans-TMS [7]: 128 fold

SMILES: COc1ccc(/C=C/c2cc(OC)cc(OC)c2)cc1 [trans-TMS, (E)-1,3-dimethoxy-5-(4-methoxystyryl)benzene]
- fold less effective in inhibiting the growth of Caco-2 cells than the cis isomer (Caco-2 cells): 100 fold
- micronucleus (MN) frequency, result in words (CHO-K1 cells [1]; CHO-K1, all concentrations, compared to NC): no significant MN frequency
- nuclear bridges (NB) (HepG2 cells [2]): No significant induction
- micronucleus (MN) frequency, result in words (HepG2 cells [2]; HepG2, all tested concentrations): significantly increased
- tumor growth (Colo 205 xenograft): significantly reduced tumor growth
- viability at 24 h, 7.8 µM [3, 10]: 62.5%
- viability at 24 h, 7.8 µM [3, 11]: 59.1%
- effect on tumor (volume, weight) in vivo (HT-29 xenografts): significantly reduced tumor volume; also recorded: significantly decreased tumor volume and weight
- serum levels [4]: much higher serum levels than the cis-TMS
- concentration from which colony formation is significantly reduced (CHO-K1 cells [5]; CHO-K1 (stated for both cell lines)): 5 µM
- frequency of survival fraction, result in words (CHO-K1 cells [5]; CHO-K1, 2.5-20 μM): significant concentration-dependent reduction
- concentration from which colony formation is significantly reduced (HepG2 cells [6]; HepG2 (stated for both cell lines)): 5 µM
- frequency of survival fraction, result in words (HepG2 cells [6]; HepG2, 2.5-20 μM): significant concentration-dependent reduction

SMILES: Oc1ccc(/C=C/c2cc(O)cc(O)c2)cc1 [Resveratrol]
- prevention of formation of colon and intestinal tumors [8]: 70%

SMILES: COc1cc(/C=C/c2ccc(O)cc2)cc(OC)c1 [pterostilbene]
- formation of azoxymethane-induced colonic aberrant crypt foci (ACF) [9]: reduced the formation

From PMC5596366, “Cytotoxicity and genotoxicity of stilbene derivatives in CHO-K1 and HepG2 cell lines” (Genetics and Molecular Biology, 2017)
